Reference: the kinase profiling compilation of Christmann-Franck et al. (2016)

Columns and labels:
Assay in all cases: radiometric filter-binding kinase assay, Kinase HotSpot
Conditions in all cases: compound 0.5 µM; ATP 10 µM
ACVR1 (human) = ACVR1 (human) (UniProt Q04771)
ADRBK1 (human) = ADRBK1 (human) (UniProt P25098)
AURKA (human) = AURKA (human) (UniProt O14965)
AURKC (human) = AURKC (human) (UniProt Q9UQB9)
BRSK1 (human) = BRSK1 (human) (UniProt Q8TDC3)
CAMK2G (human) = CAMK2G (human) (UniProt Q13555)
CDC42BPB (human) = CDC42BPB (human) (UniProt Q9Y5S2)
CDK2 CCNA2 (human) = CDK2 CCNA2 (human) (UniProt P24941+P20248)
CDK2 CCNA2 (human), sequence (P20248 whole entry, looked up, other chains not shown): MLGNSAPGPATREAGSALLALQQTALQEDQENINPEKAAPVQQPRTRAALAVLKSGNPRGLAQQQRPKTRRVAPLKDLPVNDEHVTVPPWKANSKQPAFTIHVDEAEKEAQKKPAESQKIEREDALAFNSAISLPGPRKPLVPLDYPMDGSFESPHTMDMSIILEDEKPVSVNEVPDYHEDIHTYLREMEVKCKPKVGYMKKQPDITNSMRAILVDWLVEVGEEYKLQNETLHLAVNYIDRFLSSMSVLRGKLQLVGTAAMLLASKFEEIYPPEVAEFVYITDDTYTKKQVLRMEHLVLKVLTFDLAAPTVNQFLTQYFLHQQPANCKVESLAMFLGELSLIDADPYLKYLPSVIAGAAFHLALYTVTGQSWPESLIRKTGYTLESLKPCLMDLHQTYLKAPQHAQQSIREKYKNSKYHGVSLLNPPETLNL

CDK5 CDK5R1 p25 (human) = CDK5 CDK5R1 p25 (human) (UniProt Q00535+Q15078)
CLK4 (human) = CLK4 (human) (UniProt Q9HAZ1)
CSNK1A1 (human) = CSNK1A1 (human) (UniProt P48729)
CSNK1E (human) = CSNK1E (human) (UniProt P49674)
CSNK1G3 (human) = CSNK1G3 (human) (UniProt Q9Y6M4)
DAPK3 (human) = DAPK3 (human) (UniProt O43293)
DYRK4 (human) = DYRK4 (human) (UniProt Q9NR20)
EPHA1 (human) = EPHA1 (human) (UniProt P21709)
ERBB4 (human) = ERBB4 (human) (UniProt Q15303)
FGFR1 (human) = FGFR1 (human) (UniProt P11362)
FGFR4 (human) = FGFR4 (human) (UniProt P22455)
GSK3A (human) = GSK3A (human) (UniProt P49840)
MAP3K3 (human) = MAP3K3 (human) (UniProt Q99759)
MAP3K8 (human) = MAP3K8 (human) (UniProt P41279)
MAP3K8 (human), sequence (P41279 whole entry, looked up): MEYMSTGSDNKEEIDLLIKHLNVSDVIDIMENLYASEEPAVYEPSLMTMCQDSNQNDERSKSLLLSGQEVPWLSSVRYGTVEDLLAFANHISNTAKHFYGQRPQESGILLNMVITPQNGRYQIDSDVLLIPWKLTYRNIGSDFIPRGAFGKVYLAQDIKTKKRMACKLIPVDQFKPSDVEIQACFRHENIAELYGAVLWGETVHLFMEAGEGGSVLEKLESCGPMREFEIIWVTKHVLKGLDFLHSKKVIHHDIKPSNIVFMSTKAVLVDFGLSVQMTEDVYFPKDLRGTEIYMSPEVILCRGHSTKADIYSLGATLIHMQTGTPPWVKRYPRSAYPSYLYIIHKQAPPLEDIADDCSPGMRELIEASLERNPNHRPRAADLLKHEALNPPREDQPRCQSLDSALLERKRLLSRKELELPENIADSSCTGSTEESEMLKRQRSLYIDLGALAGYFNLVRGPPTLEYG

MKNK2 (human) = MKNK2 (human) (UniProt Q9HBH9)
MYLK (human) = MYLK (human) (UniProt Q15746)
MYLK2 (human) = MYLK2 (human) (UniProt Q9H1R3)
NUAK1 (human) = NUAK1 (human) (UniProt O60285)
PIM3 (human) = PIM3 (human) (UniProt Q86V86)
PRKACA (human) = PRKACA (human) (UniProt P17612)
PTK2 (human) = PTK2 (human) (UniProt Q05397)
RAF1 (human) = RAF1 (human) (UniProt P04049)
RIPK2 (human) = RIPK2 (human) (UniProt O43353)
ROS1 (human) = ROS1 (human) (UniProt P08922)
ROS1 (human), sequence (P08922 whole entry, looked up): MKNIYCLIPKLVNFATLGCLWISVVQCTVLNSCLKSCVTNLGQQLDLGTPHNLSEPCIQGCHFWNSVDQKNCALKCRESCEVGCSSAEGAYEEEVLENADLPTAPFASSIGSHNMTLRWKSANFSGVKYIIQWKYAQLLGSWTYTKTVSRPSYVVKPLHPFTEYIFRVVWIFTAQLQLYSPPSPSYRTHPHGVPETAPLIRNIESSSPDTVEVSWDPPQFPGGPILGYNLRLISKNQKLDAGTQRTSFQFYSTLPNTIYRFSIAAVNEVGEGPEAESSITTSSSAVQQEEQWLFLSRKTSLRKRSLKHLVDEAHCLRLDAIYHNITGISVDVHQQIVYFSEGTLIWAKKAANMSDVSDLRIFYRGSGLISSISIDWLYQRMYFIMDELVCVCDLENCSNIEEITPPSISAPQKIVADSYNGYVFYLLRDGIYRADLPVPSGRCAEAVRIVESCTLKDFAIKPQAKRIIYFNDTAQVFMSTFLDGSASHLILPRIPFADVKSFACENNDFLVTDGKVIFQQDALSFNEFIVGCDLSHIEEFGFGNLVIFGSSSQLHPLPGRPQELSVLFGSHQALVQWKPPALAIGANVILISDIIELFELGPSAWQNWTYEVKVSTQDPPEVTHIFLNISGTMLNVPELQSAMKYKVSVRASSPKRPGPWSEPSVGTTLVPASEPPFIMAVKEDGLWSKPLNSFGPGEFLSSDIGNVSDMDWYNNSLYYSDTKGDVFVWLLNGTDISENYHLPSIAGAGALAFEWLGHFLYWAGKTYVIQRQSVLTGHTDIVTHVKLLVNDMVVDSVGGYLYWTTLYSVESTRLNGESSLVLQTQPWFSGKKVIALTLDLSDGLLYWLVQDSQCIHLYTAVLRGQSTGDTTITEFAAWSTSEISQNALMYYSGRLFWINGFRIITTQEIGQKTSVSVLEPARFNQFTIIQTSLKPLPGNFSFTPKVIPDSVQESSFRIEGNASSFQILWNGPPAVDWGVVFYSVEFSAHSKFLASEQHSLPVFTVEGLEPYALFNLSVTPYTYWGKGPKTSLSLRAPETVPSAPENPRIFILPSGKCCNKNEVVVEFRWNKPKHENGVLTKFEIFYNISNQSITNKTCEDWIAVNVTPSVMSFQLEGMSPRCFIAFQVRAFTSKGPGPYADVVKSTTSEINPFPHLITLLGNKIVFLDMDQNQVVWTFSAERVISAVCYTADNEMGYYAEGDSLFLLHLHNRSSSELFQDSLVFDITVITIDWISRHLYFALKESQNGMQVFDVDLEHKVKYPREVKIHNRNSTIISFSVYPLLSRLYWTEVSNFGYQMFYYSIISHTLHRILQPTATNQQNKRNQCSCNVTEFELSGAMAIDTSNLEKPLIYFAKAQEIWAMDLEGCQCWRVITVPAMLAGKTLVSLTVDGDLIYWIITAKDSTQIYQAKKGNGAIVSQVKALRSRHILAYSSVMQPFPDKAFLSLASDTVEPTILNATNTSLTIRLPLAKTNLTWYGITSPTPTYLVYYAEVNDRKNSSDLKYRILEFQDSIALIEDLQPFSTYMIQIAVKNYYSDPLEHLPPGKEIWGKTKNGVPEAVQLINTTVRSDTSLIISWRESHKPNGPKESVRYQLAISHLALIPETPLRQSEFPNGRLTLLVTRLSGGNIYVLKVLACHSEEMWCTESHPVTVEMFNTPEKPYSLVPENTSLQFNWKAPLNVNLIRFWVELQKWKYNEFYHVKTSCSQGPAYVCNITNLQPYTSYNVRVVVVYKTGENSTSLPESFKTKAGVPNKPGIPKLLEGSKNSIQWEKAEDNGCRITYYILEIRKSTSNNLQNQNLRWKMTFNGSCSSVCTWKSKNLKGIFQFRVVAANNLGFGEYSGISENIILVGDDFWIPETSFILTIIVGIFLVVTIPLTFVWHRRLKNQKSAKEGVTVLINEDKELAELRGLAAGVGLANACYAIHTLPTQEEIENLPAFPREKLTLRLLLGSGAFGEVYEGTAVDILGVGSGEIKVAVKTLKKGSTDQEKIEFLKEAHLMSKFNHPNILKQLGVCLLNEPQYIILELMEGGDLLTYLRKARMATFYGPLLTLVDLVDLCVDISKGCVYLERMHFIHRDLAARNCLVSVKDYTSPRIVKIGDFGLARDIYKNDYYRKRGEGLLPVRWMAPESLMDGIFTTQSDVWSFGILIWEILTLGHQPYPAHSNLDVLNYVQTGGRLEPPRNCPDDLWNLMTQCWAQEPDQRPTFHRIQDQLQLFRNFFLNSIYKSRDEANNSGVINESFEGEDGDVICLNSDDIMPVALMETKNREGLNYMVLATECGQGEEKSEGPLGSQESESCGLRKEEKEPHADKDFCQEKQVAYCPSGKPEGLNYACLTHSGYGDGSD

RPS6KA5 KD2 (human) = RPS6KA5 KD2 (human) (UniProt O75582)
RPS6KA6 KD1 KD2 (human) = RPS6KA6 KD1 KD2 (human) (UniProt Q9UK32)
RPS6KB2 (human) = RPS6KB2 (human) (UniProt Q9UBS0)
SRPK1 (human) = SRPK1 (human) (UniProt Q96SB4)
SRPK1 (human), sequence (Q96SB4 whole entry, looked up): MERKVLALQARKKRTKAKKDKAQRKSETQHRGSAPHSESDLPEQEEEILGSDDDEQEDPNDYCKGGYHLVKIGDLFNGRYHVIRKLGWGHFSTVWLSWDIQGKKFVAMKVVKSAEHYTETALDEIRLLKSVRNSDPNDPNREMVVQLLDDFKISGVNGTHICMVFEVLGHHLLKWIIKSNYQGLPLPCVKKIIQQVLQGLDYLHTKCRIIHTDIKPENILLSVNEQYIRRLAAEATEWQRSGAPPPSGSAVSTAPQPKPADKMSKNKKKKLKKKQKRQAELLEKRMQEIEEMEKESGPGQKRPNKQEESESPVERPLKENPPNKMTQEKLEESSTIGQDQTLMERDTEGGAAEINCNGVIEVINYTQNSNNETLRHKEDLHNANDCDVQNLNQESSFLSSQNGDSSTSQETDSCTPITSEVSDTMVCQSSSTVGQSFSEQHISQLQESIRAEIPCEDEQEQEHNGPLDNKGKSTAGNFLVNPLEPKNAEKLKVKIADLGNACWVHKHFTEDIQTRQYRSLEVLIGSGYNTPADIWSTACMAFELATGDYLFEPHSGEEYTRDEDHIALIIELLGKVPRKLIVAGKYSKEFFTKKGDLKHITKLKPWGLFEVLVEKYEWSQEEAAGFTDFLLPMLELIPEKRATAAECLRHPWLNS

TEC (human) = TEC (human) (UniProt P42680)
TGFBR1 (human) = TGFBR1 (human) (UniProt P36897)
ULK1 (human) = ULK1 (human) (UniProt O75385)
ULK1 (human), sequence (O75385 whole entry, looked up): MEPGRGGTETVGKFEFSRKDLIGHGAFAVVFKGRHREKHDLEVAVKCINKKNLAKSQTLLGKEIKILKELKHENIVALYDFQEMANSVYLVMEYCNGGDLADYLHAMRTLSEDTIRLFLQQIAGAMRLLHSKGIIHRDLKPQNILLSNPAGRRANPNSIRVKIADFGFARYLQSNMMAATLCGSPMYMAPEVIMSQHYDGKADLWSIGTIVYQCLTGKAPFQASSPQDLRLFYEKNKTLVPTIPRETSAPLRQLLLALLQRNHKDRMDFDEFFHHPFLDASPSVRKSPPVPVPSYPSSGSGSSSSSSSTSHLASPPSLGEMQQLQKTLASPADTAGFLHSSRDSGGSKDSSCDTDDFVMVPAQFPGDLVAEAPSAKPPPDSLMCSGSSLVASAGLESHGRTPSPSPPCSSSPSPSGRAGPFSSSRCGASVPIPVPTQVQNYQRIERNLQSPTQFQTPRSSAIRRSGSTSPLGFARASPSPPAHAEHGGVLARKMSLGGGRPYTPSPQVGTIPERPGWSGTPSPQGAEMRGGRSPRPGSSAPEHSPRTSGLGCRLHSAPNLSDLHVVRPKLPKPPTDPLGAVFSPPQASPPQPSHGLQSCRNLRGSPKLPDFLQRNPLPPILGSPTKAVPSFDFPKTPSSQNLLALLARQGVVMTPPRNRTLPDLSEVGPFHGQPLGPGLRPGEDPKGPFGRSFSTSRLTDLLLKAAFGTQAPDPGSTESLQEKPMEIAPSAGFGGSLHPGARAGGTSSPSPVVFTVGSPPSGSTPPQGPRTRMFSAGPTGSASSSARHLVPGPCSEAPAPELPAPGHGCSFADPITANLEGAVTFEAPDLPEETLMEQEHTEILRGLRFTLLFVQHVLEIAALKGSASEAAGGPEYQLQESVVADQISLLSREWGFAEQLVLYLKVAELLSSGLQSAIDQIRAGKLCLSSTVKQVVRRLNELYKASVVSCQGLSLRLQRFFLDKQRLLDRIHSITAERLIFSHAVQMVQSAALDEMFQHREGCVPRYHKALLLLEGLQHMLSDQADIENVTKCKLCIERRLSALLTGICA

YES1 (human) = YES1 (human) (UniProt P07947)
DMPK (human) = DMPK (human) (UniProt Q09013)
PAK3 (human) = PAK3 (human) (UniProt O75914)

## COc1cc(Nc2c(C#N)cnc3cc(OCCCN4CCN(C)CC4)c(OC)cc23)c(Cl)cc1Cl
ACVR1 (human)
  residual activity: 93.3%
ADRBK1 (human)
  residual activity: 97.3%
AURKA (human)
  residual activity: 86%
AURKC (human)
  residual activity: 82.1%
BRSK1 (human)
  residual activity: 97.5%
CAMK2G (human)
  residual activity: 131%
CDC42BPB (human)
  residual activity: 88.2%
CDK2 CCNA2 (human)
  residual activity: 91.1%
CDK5 CDK5R1 p25 (human)
  residual activity: 95.9%
CLK4 (human)
  residual activity: 76.6%
CSNK1A1 (human)
  residual activity: 49.5%
CSNK1E (human)
  residual activity: 11.4%
CSNK1G3 (human)
  residual activity: 98.3%
DAPK3 (human)
  residual activity: 107%
DYRK4 (human)
  residual activity: 97.9%
EPHA1 (human)
  residual activity: 97.7%
ERBB4 (human)
  residual activity: 1.53%
FGFR1 (human)
  residual activity: 64.4%
FGFR4 (human)
  residual activity: 94.1%
GSK3A (human)
  residual activity: 103%
MAP3K3 (human)
  residual activity: 11.8%
MAP3K8 (human)
  residual activity: 101%
MKNK2 (human)
  residual activity: 98.7%
MYLK (human)
  residual activity: 72%
MYLK2 (human)
  residual activity: 32.1%
NUAK1 (human)
  residual activity: 11.4%
PIM3 (human)
  residual activity: 97.7%
PRKACA (human)
  residual activity: 73.8%
PTK2 (human)
  residual activity: 96%
RAF1 (human)
  residual activity: 105%
RIPK2 (human)
  residual activity: 111%
ROS1 (human)
  residual activity: 95.4%
RPS6KA5 KD2 (human)
  residual activity: 90.8%
RPS6KA6 KD1 KD2 (human)
  residual activity: 62%
RPS6KB2 (human)
  residual activity: 107%
SRPK1 (human)
  residual activity: 98.5%
TEC (human)
  residual activity: 96.1%
TGFBR1 (human)
  residual activity: 99%
ULK1 (human)
  residual activity: 79.1%
YES1 (human)
  residual activity: 7.29%

## C[C@@H]1CCN(C(=O)CC#N)C[C@@H]1N(C)c1ncnc2[nH]ccc12
ACVR1 (human)
  residual activity: 104%
ADRBK1 (human)
  residual activity: 95.3%
AURKA (human)
  residual activity: 84.1%
AURKC (human)
  residual activity: 85.3%
BRSK1 (human)
  residual activity: 102%
CAMK2G (human)
  residual activity: 127%
CDC42BPB (human)
  residual activity: 95.4%
CDK2 CCNA2 (human)
  residual activity: 89.5%
CDK5 CDK5R1 p25 (human)
  residual activity: 100%
CLK4 (human)
  residual activity: 111%
CSNK1A1 (human)
  residual activity: 99.7%
CSNK1E (human)
  residual activity: 101%
CSNK1G3 (human)
  residual activity: 101%
DAPK3 (human)
  residual activity: 106%
DMPK (human)
  residual activity: 108%
DYRK4 (human)
  residual activity: 97.2%
EPHA1 (human)
  residual activity: 98%
ERBB4 (human)
  residual activity: 100%
FGFR1 (human)
  residual activity: 101%
FGFR4 (human)
  residual activity: 94.3%
GSK3A (human)
  residual activity: 103%
MAP3K3 (human)
  residual activity: 115%
MAP3K8 (human)
  residual activity: 93.5%
MKNK2 (human)
  residual activity: 97.4%
MYLK (human)
  residual activity: 89.9%
MYLK2 (human)
  residual activity: 99%
NUAK1 (human)
  residual activity: 71.2%
PAK3 (human)
  residual activity: 105%
PIM3 (human)
  residual activity: 96.5%
PTK2 (human)
  residual activity: 103%
RAF1 (human)
  residual activity: 95.5%
RIPK2 (human)
  residual activity: 113%
ROS1 (human)
  residual activity: 94.1%
RPS6KA5 KD2 (human)
  residual activity: 94.8%
RPS6KA6 KD1 KD2 (human)
  residual activity: 98.1%
RPS6KB2 (human)
  residual activity: 100%
SRPK1 (human)
  residual activity: 99.8%
TEC (human)
  residual activity: 95.4%
TGFBR1 (human)
  residual activity: 98.8%
ULK1 (human)
  residual activity: 83%
YES1 (human)
  residual activity: 87.1%
